Measurements published in patent EP1561465A2, “Methods of use of fluoroquinolone compounds against bacteria” (LG Life Sciences, Ltd., priority 1999, dated 2001).
≈ marks a conversion by molar mass, not a printed value.

Tests used:
Type in all cases: cell-based
Hafnia alvei = assay: MIC by agar dilution (NCCLS M7-A4), 288 enteropathogenic isolates, eight quinolones; conditions: Hafnia alvei (n = 32)
Shigella spp. = assay: as above; conditions: Shigella spp. (n = 21)
Aeromonas spp. = assay: as above; conditions: Aeromonas spp. (n = 16)
Campylobacter jejuni = assay: MIC by agar dilution (NCCLS M7-A4), 5% sheep blood, microaerophilic 48 h; conditions: Campylobacter jejuni (n=91)
Staphylococcus aureus [1] = assay: MIC by agar dilution (NCCLS), 411 isolates Buenos Aires 1998-99; conditions: for MIC90: Staphylococcus aureus
Streptococcus pyogenes = assay: MIC by NCCLS reference broth microdilution, 450 respiratory tract pathogens; conditions: Streptococcus pyogenes
Staphylococcus aureus [2] = assay: as above
Klebsiella pneumoniae = assay: as above; conditions: for MIC50 / MIC90: Klebsiella pneumoniae
Moraxella catarrhalis = assay: MIC by two-fold serial agar dilution, Sensitivity Disk agar-N (Kitasato isolates); conditions: Moraxella catarrhalis (22)
Staphylococcus aureus [3] = assay: MIC by NCCLS broth microdilution, 1100 Japanese clinical isolates 1997-1998
[4] = S. aureus, Methicillin resistant (n = 14)
[5] = S. aureus, Methicillin susceptible (n = 66)
[6] = Streptococcus pyogenes (n = 100)
[7] = erythromycin resistant C phenotype [MLSB] (n = 20)
[8] = erythromycin resistant I phenotype [MLSB] (n = 20)
[9] = erythromycin resistant M phenotype (n = 20)
[10] = β-lactamase positive and erythromycin resistant (n = 10)
[11] = extended spectrum β-lactamase negative (n = 30)
[12] = extended spectrum β-lactamase positive (n = 20)
[13] = Staphylococcus aureus, Staphylococcus aureus oxacillin resistant (n=57)

Q: `N[C@@H]1[C@H]2CN(c3nc4c(cc3F)c(=O)c(C(=O)O)cn4-c3ccc(F)cc3F)C[C@@H]12` [Trovafloxacin, trovafloxacin] was tested. Which “% Susceptible” value (Hafnia alvei) did it give?
A: 100%

Q: What about the MIC50 (Hafnia alvei) of the same compound?
A: 0.06 µg/mL (≈ 0.144 µM)

Q: What about the MIC90 (Hafnia alvei) of the same compound?
A: 0.06 µg/mL (≈ 0.144 µM)

Q: And the “MIC Range” value (Hafnia alvei)?
A: 0.03 to 0.12 µg/mL

Q: And the “% Susceptible” value (Shigella spp.)?
A: 100%

Q: What about the MIC50 (Shigella spp.) of the same compound?
A: ≤ 0.015 µg/mL

Q: What about the MIC90 (Shigella spp.) of the same compound?
A: ≤ 0.015 µg/mL

Q: What about the “MIC Range” value (Shigella spp.) of the same compound?
A: ≤0.015 µg/mL

Q: And the “% Susceptible” value (Aeromonas spp.)?
A: 100%

Q: What about the MIC50 (Aeromonas spp.) of the same compound?
A: ≤ 0.015 µg/mL

Q: And the MIC90 (Aeromonas spp.)?
A: 0.03 µg/mL (≈ 0.0721 µM)

Q: And the “MIC Range” value (Aeromonas spp.)?
A: ≤0.015 to 0.25 µg/mL

Q: And the “% Susceptible” value (Campylobacter jejuni)?
A: 31.86%

Q: And the MIC50 (Campylobacter jejuni)?
A: 8 µg/mL (≈ 19.2 µM)

Q: And the MIC90 (Campylobacter jejuni)?
A: 8 µg/mL (≈ 19.2 µM)

Q: What about the “MIC Range” value (Campylobacter jejuni) of the same compound?
A: ≤0.015 to 32 µg/mL

Q: What about the “Resistance (%)” value (Staphylococcus aureus [1]; [4]) of the same compound?
A: 7%

Q: And the “Resistance (%)” value (Staphylococcus aureus [1]; [5])?
A: 0%

Q: And the “MIC Range” value (Staphylococcus aureus [1]; Staphylococcus aureus (n = 80))?
A: ≤0.004 to 8 µg/mL

Q: And the MIC90 (Staphylococcus aureus [1]; [4])?
A: 4 µg/mL (≈ 9.61 µM)

Q: And the MIC90 (Staphylococcus aureus [1]; [5])?
A: 0.06 µg/mL (≈ 0.144 µM)

Q: And the MIC90 (Staphylococcus aureus [1]; Staphylococcus aureus (n = 80))?
A: 2 µg/mL (≈ 4.8 µM)

Q: And the MIC (Streptococcus pyogenes; [6])?
A: 0.03 to 1 µg/mL (≈ 0.0721 to 2.4 µM)

Q: What about the MIC50 (Streptococcus pyogenes; [6]) of the same compound?
A: 0.12 µg/mL (≈ 0.288 µM)

Q: And the MIC90 (Streptococcus pyogenes; [6])?
A: 0.25 µg/mL (≈ 0.6 µM)

Q: And the MIC (Streptococcus pyogenes; [7])?
A: 0.03 to 0.12 µg/mL (≈ 0.0721 to 0.288 µM)

Q: What about the MIC50 (Streptococcus pyogenes; [7]) of the same compound?
A: 0.06 µg/mL (≈ 0.144 µM)

Q: What about the MIC90 (Streptococcus pyogenes; [7]) of the same compound?
A: 0.12 µg/mL (≈ 0.288 µM)

Q: And the MIC (Streptococcus pyogenes; [8])?
A: 0.06 to 0.5 µg/mL (≈ 0.144 to 1.2 µM)

Q: And the MIC50 (Streptococcus pyogenes; [8])?
A: 0.12 µg/mL (≈ 0.288 µM)

Q: What about the MIC90 (Streptococcus pyogenes; [8]) of the same compound?
A: 0.5 µg/mL (≈ 1.2 µM)

Q: And the MIC (Streptococcus pyogenes; [9])?
A: 0.06 to 0.5 µg/mL (≈ 0.144 to 1.2 µM)

Q: What about the MIC50 (Streptococcus pyogenes; [9]) of the same compound?
A: 0.12 µg/mL (≈ 0.288 µM)

Q: And the MIC90 (Streptococcus pyogenes; [9])?
A: 0.12 µg/mL (≈ 0.288 µM)

Q: And the MIC (Streptococcus pyogenes; fully susceptible (n = 20))?
A: 0.06 to 1 µg/mL (≈ 0.144 to 2.4 µM)

Q: What about the MIC50 (Streptococcus pyogenes; fully susceptible (n = 20)) of the same compound?
A: 0.12 µg/mL (≈ 0.288 µM)

Q: What about the MIC90 (Streptococcus pyogenes; fully susceptible (n = 20)) of the same compound?
A: 0.25 µg/mL (≈ 0.6 µM)

Q: And the MIC (Streptococcus pyogenes; multi-drug resistant (n = 20))?
A: 0.12 to 0.25 µg/mL (≈ 0.288 to 0.6 µM)

Q: What about the MIC50 (Streptococcus pyogenes; multi-drug resistant (n = 20)) of the same compound?
A: 0.12 µg/mL (≈ 0.288 µM)

Q: What about the MIC90 (Streptococcus pyogenes; multi-drug resistant (n = 20)) of the same compound?
A: 0.25 µg/mL (≈ 0.6 µM)

Q: And the MIC (Staphylococcus aureus [2]; Staphylococcus aureus (n = 50))?
A: 0.00375 to 0.5 µg/mL (≈ 0.00901 to 1.2 µM)

Q: What about the MIC50 (Staphylococcus aureus [2]; Staphylococcus aureus (n = 50)) of the same compound?
A: 0.12 µg/mL (≈ 0.288 µM)

Q: What about the MIC90 (Staphylococcus aureus [2]; Staphylococcus aureus (n = 50)) of the same compound?
A: 0.25 µg/mL (≈ 0.6 µM)

Q: What about the MIC (Staphylococcus aureus [2]; β-lactamase negative (n = 20)) of the same compound?
A: 0.00375 to 0.25 µg/mL (≈ 0.00901 to 0.6 µM)

Q: And the MIC50 (Staphylococcus aureus [2]; β-lactamase negative (n = 20))?
A: 0.12 µg/mL (≈ 0.288 µM)

Q: What about the MIC90 (Staphylococcus aureus [2]; β-lactamase negative (n = 20)) of the same compound?
A: 0.25 µg/mL (≈ 0.6 µM)

Q: What about the MIC (Staphylococcus aureus [2]; β-lactamase positive (n = 20)) of the same compound?
A: 0.06 to 0.5 µg/mL (≈ 0.144 to 1.2 µM)

Q: What about the MIC50 (Staphylococcus aureus [2]; β-lactamase positive (n = 20)) of the same compound?
A: 0.12 µg/mL (≈ 0.288 µM)

Q: What about the MIC90 (Staphylococcus aureus [2]; β-lactamase positive (n = 20)) of the same compound?
A: 0.25 µg/mL (≈ 0.6 µM)

Q: What about the MIC (Staphylococcus aureus [2]; [10]) of the same compound?
A: 0.00375 to 0.25 µg/mL (≈ 0.00901 to 0.6 µM)

Q: And the MIC50 (Staphylococcus aureus [2]; [10])?
A: 0.12 µg/mL (≈ 0.288 µM)

Q: What about the MIC90 (Staphylococcus aureus [2]; [10]) of the same compound?
A: 0.25 µg/mL (≈ 0.6 µM)

Q: What about the “MIC Range” value (Klebsiella pneumoniae; Klebsiella pneumoniae (n = 50)) of the same compound?
A: ≤0.0075 to 0.5 µg/mL

Q: What about the MIC50 (Klebsiella pneumoniae; Klebsiella pneumoniae (n = 50)) of the same compound?
A: 0.06 µg/mL (≈ 0.144 µM)

Q: And the MIC90 (Klebsiella pneumoniae; Klebsiella pneumoniae (n = 50))?
A: 0.5 µg/mL (≈ 1.2 µM)

Q: What about the MIC50 (Klebsiella pneumoniae; [11]) of the same compound?
A: 0.06 µg/mL (≈ 0.144 µM)

Q: What about the MIC90 (Klebsiella pneumoniae; [11]) of the same compound?
A: 0.12 µg/mL (≈ 0.288 µM)

Q: And the MIC50 (Klebsiella pneumoniae; [12])?
A: 0.5 µg/mL (≈ 1.2 µM)

Q: What about the MIC90 (Klebsiella pneumoniae; [12]) of the same compound?
A: 0.5 µg/mL (≈ 1.2 µM)

Q: And the “MIC Range” value (Klebsiella pneumoniae; [11])?
A: ≤0.0075 to 0.015 µg/mL

Q: And the “MIC Range” value (Klebsiella pneumoniae; [12])?
A: 0.06 to 0.5 µg/mL

Q: What about the MIC50 (Moraxella catarrhalis) of the same compound?
A: 0.016 µg/mL (≈ 0.0384 µM)

Q: And the MIC90 (Moraxella catarrhalis)?
A: 0.031 µg/mL (≈ 0.0745 µM)

Q: What about the “MIC Range” value (Moraxella catarrhalis) of the same compound?
A: 0.016 to 0.031 µg/mL

Q: And the “MIC Range” value (Staphylococcus aureus [3]; Staphylococcus aureus oxacillin resistant (n=57))?
A: 0.016 to 32 µg/mL

Q: What about the “MIC Range” value (Staphylococcus aureus [3]; Staphylococcus aureus oxacillin susceptible (n=41)) of the same compound?
A: ≤0.008 to 0.5 µg/mL

Q: What about the MIC50 (Staphylococcus aureus [3]; [13]) of the same compound?
A: 1 µg/mL (≈ 2.4 µM)

Q: And the MIC90 (Staphylococcus aureus [3]; [13])?
A: 8 µg/mL (≈ 19.2 µM)

Q: And the MIC50 (Staphylococcus aureus [3]; Staphylococcus aureus, Staphylococcus aureus oxacillin susceptible (n=41))?
A: 0.032 µg/mL (≈ 0.0769 µM)
